Legend:
[1] = biological target: T1, Nuclear receptor subfamily 1 group I member 3 (Homo sapiens, UniProt Q14994); assay: (§1) Constitutive androstane receptor indirect activator; assay type: ADME
T1 sequence (Q14994 whole entry): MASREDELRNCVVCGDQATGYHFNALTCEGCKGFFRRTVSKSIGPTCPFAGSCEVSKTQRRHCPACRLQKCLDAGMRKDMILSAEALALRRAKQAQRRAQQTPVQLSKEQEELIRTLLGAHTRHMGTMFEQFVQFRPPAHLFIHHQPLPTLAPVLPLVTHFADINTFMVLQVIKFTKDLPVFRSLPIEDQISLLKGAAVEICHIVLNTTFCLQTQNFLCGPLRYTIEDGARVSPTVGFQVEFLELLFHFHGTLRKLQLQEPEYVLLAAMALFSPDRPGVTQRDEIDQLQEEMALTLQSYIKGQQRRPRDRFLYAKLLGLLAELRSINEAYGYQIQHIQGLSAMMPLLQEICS

[2] = biological target: T2, Nuclear receptor subfamily 1 group I member 3 (Mus musculus, UniProt O35627); assay: as §1; assay type: ADME
T2 sequence (O35627 whole entry): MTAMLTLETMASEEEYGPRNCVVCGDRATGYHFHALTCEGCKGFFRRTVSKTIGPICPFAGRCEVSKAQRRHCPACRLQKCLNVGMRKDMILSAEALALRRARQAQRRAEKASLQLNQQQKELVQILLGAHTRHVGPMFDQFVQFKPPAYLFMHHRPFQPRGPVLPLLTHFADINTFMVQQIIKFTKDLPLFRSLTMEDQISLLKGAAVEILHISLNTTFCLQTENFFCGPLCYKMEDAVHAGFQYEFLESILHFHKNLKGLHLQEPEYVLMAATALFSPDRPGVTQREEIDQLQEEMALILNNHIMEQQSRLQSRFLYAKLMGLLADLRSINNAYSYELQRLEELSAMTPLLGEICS

Cytochrome P450 2C9 = Cytochrome P450 2C9 (Homo sapiens, UniProt P11712); assay: Clinically relevant substrates of human liver microsomal P450 enzymes, isoform CYP2C9; assay type: ADME; details: microsomes
Cytochrome P450 2B6 = biological target: T3, Cytochrome P450 2B6 (Homo sapiens, UniProt P20813); assay: Clinically relevant inducers of human liver microsomal P450 enzymes, isoform CYP2B6; assay type: ADME; details: microsomes
T3 sequence (P20813 whole entry): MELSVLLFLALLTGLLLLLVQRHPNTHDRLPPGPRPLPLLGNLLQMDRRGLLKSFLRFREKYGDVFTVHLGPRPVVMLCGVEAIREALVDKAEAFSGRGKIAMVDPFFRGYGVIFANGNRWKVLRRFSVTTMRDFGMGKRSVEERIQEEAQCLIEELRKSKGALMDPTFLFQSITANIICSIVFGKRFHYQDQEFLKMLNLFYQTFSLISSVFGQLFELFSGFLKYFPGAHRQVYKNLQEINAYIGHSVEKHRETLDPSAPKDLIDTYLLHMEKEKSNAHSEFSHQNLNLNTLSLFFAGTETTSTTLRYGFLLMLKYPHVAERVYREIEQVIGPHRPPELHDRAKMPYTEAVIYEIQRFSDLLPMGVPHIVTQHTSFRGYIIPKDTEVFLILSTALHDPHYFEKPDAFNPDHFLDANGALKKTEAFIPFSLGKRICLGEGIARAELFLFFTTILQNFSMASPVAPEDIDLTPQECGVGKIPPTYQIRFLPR

[3] = biological target: T4, Glutathione S-transferase A1 (Homo sapiens, UniProt P08263); assay: Substrates for human cytosolic glutathione transferase GSTA1; assay type: ADME
T4 sequence (P08263 whole entry): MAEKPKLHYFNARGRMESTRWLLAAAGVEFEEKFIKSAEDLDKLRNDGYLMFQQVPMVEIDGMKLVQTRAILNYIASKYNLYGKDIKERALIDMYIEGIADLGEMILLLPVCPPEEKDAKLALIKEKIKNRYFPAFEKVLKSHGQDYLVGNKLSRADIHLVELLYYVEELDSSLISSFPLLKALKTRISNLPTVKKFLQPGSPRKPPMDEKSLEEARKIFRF

[4] = biological target: Glutathione S-transferase A3 (Homo sapiens, UniProt Q16772); assay: Substrates for human cytosolic glutathione transferase GSTA3; assay type: ADME
[5] = biological target: T1, Nuclear receptor subfamily 1 group I member 3; assay: Constitutive androstane receptor inverse agonist
[6] = biological target: T2, Nuclear receptor subfamily 1 group I member 3; assay: Constitutive androstane receptor agonist
[7] = biological target: T5, Glutathione S-transferase A2 (Homo sapiens, UniProt P09210); assay: Substrates for human cytosolic glutathione transferase GSTA2; assay type: ADME
T5 sequence (P09210 whole entry): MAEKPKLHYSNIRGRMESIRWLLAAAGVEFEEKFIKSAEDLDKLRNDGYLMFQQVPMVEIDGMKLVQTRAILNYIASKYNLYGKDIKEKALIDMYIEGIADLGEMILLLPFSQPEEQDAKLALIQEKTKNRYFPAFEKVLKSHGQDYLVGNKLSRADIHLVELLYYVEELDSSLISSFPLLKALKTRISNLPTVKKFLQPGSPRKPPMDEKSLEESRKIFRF

[8] = biological target: T6, Glutathione S-transferase kappa 1 (Homo sapiens, UniProt Q9Y2Q3); assay: Substrates for human mitochondrial glutathione transferase GSTK1; assay type: ADME
T6 sequence (Q9Y2Q3 whole entry): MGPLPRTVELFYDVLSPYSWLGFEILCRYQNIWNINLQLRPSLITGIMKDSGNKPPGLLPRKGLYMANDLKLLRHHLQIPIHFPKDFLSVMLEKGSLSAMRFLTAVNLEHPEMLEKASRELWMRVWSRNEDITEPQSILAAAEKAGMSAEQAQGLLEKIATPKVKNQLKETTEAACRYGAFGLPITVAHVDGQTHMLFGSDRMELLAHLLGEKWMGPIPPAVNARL

[9] = biological target: Glutathione S-transferase theta-2 (Homo sapiens, UniProt P0CG29); assay: Substrates for human cytosolic glutathione transferase GSTT2; assay type: ADME
[10] = biological target: T7, Microsomal glutathione S-transferase 1 (Homo sapiens, UniProt P10620); assay: Substrates for human microsomal glutathione transferase MGST1; assay type: ADME
T7 sequence (P10620 whole entry): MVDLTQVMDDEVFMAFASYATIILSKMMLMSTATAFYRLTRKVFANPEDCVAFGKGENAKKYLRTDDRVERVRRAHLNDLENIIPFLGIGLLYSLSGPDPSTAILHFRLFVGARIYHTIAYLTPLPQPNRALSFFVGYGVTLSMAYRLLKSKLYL

[11] = biological target: Glutathione S-transferase Mu 3 (Homo sapiens, UniProt P21266); assay: Substrates for human cytosolic glutathione transferase GSTM3; assay type: ADME
[12] = biological target: T8, Glutathione S-transferase theta-1 (Homo sapiens, UniProt P30711); assay: Substrates for human cytosolic glutathione transferase GSTT1; assay type: ADME
T8 sequence (P30711 whole entry): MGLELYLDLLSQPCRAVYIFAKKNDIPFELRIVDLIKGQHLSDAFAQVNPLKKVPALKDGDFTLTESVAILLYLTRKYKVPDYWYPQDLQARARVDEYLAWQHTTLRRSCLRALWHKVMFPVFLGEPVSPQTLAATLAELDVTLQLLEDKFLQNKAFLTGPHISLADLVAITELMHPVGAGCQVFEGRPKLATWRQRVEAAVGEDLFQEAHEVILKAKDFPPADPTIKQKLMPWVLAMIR

[13] = biological target: T9, Aryl hydrocarbon receptor (Homo sapiens, UniProt P35869); assay: Aryl hydrocarbon receptor antagonist (species not specified)
T9 sequence (P35869 whole entry): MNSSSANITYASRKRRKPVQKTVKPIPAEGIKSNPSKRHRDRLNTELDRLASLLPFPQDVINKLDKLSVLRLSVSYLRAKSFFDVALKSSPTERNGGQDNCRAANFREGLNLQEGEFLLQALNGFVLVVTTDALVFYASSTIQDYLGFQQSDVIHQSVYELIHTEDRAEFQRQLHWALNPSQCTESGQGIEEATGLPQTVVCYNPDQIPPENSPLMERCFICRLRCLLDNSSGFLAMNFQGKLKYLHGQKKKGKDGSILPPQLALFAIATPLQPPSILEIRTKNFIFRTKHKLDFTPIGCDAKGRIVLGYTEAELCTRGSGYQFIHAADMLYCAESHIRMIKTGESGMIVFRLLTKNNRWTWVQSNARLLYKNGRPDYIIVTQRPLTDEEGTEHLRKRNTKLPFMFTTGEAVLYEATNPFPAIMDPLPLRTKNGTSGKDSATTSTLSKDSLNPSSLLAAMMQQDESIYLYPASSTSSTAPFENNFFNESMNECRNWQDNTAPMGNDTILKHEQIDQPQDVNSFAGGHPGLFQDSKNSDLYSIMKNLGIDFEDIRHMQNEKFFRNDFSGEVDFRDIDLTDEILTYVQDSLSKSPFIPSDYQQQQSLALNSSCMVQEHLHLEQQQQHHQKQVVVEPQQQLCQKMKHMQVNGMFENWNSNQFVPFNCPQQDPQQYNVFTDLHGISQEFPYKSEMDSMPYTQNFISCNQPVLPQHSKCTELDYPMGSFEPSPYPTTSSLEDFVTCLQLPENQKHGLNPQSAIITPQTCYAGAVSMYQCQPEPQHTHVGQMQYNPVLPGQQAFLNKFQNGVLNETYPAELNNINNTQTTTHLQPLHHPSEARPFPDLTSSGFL

[14] = biological target: T9, Aryl hydrocarbon receptor; assay: Aryl hydrocarbon receptor agonist (species not specified)
Cytochrome P450 2C19 = Cytochrome P450 2C19 (Homo sapiens, UniProt P33261); assay: Clinically relevant substrates of human liver microsomal P450 enzymes, isoform CYP2C19; assay type: ADME; details: microsomes
Cytochrome P450 1A2 = biological target: T10, Cytochrome P450 1A2 (Homo sapiens, UniProt P05177); assay: Clinically relevant inducers of human liver microsomal P450 enzymes, isoform CYP1A2; assay type: ADME; details: microsomes
T10 sequence (P05177 whole entry): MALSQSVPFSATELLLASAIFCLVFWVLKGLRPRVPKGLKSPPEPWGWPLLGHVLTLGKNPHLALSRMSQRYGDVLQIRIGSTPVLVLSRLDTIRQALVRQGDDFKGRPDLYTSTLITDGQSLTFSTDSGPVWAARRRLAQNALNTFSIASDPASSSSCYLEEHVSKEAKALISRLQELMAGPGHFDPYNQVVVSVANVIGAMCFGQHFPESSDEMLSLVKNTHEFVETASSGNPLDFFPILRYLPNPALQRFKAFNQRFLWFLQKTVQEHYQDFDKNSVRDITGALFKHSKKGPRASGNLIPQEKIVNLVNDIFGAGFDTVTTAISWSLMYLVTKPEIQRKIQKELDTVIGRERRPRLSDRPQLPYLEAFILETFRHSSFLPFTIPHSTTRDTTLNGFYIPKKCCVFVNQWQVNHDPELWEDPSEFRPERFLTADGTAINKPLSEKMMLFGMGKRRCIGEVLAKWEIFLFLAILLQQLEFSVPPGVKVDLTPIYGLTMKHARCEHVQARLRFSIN

Sulfotransferase 4A1 = biological target: T11, Sulfotransferase 4A1 (Homo sapiens, UniProt Q9BR01); assay: Major substrate of human cytosolic sulfotransferase SULT4A1_v1; assay type: ADME
T11 sequence (Q9BR01 whole entry): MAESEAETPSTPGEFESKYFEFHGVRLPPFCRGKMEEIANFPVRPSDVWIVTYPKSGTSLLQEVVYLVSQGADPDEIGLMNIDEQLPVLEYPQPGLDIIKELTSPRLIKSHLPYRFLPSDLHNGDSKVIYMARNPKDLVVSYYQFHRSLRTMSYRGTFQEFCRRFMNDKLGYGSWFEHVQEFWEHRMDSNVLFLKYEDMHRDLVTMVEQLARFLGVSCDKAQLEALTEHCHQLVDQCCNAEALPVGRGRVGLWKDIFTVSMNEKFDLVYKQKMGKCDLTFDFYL

Sulfotransferase 1A1 = Sulfotransferase 1A1 (Homo sapiens, UniProt P50225); assay: Major substrate of human cytosolic sulfotransferase SULT1A1; assay type: ADME
Sulfotransferase 1A2 = Sulfotransferase 1A2 (Homo sapiens, UniProt P50226); assay: Major substrate of human cytosolic sulfotransferase SULT1A2; assay type: ADME
Sequence of Sulfotransferase 1A2 (P50226 whole entry): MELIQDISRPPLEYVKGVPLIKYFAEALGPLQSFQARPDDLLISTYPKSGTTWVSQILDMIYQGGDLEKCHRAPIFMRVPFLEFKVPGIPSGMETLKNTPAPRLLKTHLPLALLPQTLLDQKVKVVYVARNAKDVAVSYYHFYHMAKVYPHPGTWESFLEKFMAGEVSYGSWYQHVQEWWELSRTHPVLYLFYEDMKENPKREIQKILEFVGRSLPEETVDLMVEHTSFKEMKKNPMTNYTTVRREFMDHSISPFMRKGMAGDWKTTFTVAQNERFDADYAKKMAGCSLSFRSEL

Sequence of Glutathione S-transferase A3 (Q16772 whole entry): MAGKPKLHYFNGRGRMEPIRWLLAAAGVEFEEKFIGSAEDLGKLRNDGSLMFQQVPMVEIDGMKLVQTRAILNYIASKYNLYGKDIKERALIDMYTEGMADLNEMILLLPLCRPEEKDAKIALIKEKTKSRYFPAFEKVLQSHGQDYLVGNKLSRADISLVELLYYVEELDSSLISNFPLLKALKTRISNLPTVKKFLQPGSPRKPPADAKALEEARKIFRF
Sequence of Glutathione S-transferase theta-2 (P0CG29 whole entry): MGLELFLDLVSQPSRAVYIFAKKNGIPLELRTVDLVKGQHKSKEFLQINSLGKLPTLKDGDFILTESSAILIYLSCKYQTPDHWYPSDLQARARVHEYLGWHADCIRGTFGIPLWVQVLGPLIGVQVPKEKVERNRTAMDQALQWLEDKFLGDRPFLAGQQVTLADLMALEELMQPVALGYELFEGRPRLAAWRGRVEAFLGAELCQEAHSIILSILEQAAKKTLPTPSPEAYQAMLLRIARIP
Sequence of Cytochrome P450 2C19 (P33261 whole entry, canonical isoform): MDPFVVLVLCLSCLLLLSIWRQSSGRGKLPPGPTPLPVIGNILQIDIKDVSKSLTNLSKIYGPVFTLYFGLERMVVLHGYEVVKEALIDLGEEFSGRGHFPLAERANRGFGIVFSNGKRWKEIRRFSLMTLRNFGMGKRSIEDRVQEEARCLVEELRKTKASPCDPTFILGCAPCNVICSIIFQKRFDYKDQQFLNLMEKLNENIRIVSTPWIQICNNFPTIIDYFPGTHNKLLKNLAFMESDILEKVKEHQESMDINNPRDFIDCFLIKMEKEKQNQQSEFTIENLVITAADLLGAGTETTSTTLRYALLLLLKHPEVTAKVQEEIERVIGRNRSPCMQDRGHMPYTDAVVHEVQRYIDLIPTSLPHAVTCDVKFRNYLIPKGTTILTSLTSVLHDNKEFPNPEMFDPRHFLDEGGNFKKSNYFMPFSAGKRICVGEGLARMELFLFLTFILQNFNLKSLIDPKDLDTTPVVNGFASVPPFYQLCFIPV
Sequence of Sulfotransferase 1A1 (P50225 whole entry): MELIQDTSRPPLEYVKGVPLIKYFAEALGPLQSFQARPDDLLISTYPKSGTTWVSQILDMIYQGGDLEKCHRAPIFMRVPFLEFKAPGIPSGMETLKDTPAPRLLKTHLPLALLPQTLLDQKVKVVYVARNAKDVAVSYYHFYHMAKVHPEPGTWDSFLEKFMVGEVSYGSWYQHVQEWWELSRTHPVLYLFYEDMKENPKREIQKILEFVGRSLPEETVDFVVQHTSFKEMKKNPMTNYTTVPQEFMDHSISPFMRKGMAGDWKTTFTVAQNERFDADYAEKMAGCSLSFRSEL
Sequence of Glutathione S-transferase Mu 3 (P21266 whole entry): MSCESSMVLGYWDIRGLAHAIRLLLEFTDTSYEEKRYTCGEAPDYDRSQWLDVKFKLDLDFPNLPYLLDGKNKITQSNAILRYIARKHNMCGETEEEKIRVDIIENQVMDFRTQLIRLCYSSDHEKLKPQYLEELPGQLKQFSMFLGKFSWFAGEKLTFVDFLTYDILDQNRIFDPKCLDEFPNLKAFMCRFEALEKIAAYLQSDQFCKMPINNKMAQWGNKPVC
Sequence of Cytochrome P450 2C9 (P11712 whole entry, canonical isoform): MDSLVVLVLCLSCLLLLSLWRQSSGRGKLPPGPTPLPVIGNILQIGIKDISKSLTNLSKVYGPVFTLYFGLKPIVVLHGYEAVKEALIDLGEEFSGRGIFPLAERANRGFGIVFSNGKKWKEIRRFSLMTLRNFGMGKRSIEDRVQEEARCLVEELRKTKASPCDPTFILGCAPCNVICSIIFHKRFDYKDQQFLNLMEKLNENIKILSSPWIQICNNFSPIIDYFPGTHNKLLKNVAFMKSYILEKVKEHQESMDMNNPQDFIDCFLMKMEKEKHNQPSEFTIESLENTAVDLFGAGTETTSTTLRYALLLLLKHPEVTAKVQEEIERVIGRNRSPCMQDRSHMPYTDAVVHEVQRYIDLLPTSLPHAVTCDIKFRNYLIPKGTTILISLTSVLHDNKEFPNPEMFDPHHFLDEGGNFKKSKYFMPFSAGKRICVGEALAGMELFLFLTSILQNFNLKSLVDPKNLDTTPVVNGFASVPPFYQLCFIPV

Structure (SMILES): O=C1NC(=O)C(c2ccccc2)(c2ccccc2)N1 [PHENYTOIN]
- Activity [1]: indirect activator
- Activity [2]: indirect activator
- Activity (Cytochrome P450 2C9): Substrate
- Activity (Cytochrome P450 2B6): Inducer

Structure (SMILES): C[C@]12CCC(=O)CC1=CC[C@@H]1[C@@H]2CC[C@]2(C)C(=O)CC[C@@H]12
- Activity [3]: Substrate
- Activity [4]: Substrate

Structure (SMILES): Cc1cccc(CN2CCN(C(c3ccccc3)c3ccc(Cl)cc3)CC2)c1 (stereo not given) [MECLIZINE]
- Activity [5]: inverse agonist
- Activity [6]: agonist

Structure (SMILES): CC(C)(OO)c1ccccc1 [CUMENE HYDROPEROXIDE]
- Activity [7]: Substrate
- Activity [8]: Substrate
- Activity [9]: Substrate
- Activity [10]: Substrate

Structure (SMILES): O=NN(CCCl)C(=O)NCCCl [CARMUSTINE]
- Activity [11]: Substrate
- Activity [12]: Substrate

Structure (SMILES): OC1c2c(cc3ccc4cccc5c6ccccc6c2c3c45)C2OC2C1O (stereo not given) [DIBENZO[A,L]PYRENE DIOL EPOXIDE]
- Activity [3]: Substrate
- Activity [7]: Substrate
- Activity [4]: Substrate

Structure (SMILES): Cc1ccccc1/N=N/c1ccc(NC(=O)c2ccnn2C)c(C)c1
- Activity [13]: antagonist

Structure (SMILES): COc1ccc2[nH]c(SCc3ncc(C)c(OC)c3C)nc2c1 [UFIPRAZOLE]
- Activity [13]: antagonist

Structure (SMILES): COc1ccc2[nH]c([S+]([O-])Cc3ncc(C)c(OC)c3C)nc2c1 (stereo not given) [OMEPRAZOLE]
- Activity [14]: agonist
- Activity (Cytochrome P450 2C19): Substrate
- Activity (Cytochrome P450 1A2): Inducer

Structure (SMILES): O=S(=O)(O)Cc1ccc2ccccc2c1 [MENAPHTHYL SULFONATE]
- Activity [9]: Substrate

Structure (SMILES): Clc1cc2c(cc1Cl)Oc1cc(Cl)c(Cl)cc1O2 [2,3,7,8-TETRACHLORODIBENZO-P-DIOXIN]
- Activity [14]: agonist
- Activity (Cytochrome P450 1A2): Inducer

Structure (SMILES): Oc1ccc2ccccc2c1 [BETANAPHTHOL]
- Activity (Sulfotransferase 4A1): Substrate
- Activity (Sulfotransferase 1A1): Substrate
- Activity (Sulfotransferase 1A2): Substrate

Structure (SMILES): CN(C)CCCN1c2ccccc2Sc2ccc(Cl)cc21 [CHLORPROMAZINE]
- Activity [5]: inverse agonist
- Activity [6]: agonist

— ChEMBL document CHEMBL1743201, “Casarett and Doull's Toxicology The Basic Science of Poisons, 7th edition” (2008)
